According to US7365191B2, “Type of oligosaccharides and their sulfate derivatives” (Shanghaimed Co., Ltd, priority 2001, dated 2008):

Columns and labels:
[1] = tested on: leukocyte infiltrate in air pouch; assay: Thioglycollate-induced air pouch inflammation in mice; format: in vivo, mouse; conditions: dose 25 mg/kg subq.
Protocol: Test method: Subcutaneous air pouches were formed on the backs of mice by injecting 5 mL of sterile air below the skin of a shaved area between the scapulae of an anaesthetized mouse. After 2 days post-injection the pouch was reinflated by the injection of 2.5 mL of air. Inflammation was induced on day 6 by injecting directly into the pouch 1.0 mL of 56 mg/mL thioglycollate or 1.0 mL of saline as a control. Approximately 17-20 h after thioglycollate injection, the animals were killed, and the cellular contents of the pouch retrieved by the injection of 2.5 mL of PBS/5% FCS. The sulfated octyl hexaoside 25 was tested for its ability to inhibit the inflammatory reaction by being injected subq. in a separate site immediately following administration of the thioglycollate. Prednisolone was used as a control anti-inflammatory drug, and was injected subq. at 25 mg/kg. The total cellular contents of each pouch were determined using a Coulter Counter and different leukocyte subpopulations were assessed by immunofluorescent flow cytometry.

[2] = tested on: U14 tumor cells; assay: Inhibition of U14 tumor implanted in mice; conditions: for inhibition (%) / quotient of noumenal tumor (%): U14 implanted mice; for quotient of noumenal tumor (%): ±SD
Protocol: Thus, the inhibition of tumor cells by the said oligosaccharides was tested using implanted tumor cells in mice. • (1) Tests of the said Oligosaccharides and their Sulfates on Mice in which Tumor Cells were Implanted. A. Materials and Methods
Cell line for the tests: U14 cell line was procured from The Tumor Research Group, The Institute of Chinese Herbal Medicine, Chinese Academy of Traditional Chinese Medicine;
Animals for the tests: 70 Kunming male mice (weight 20±2 g, grade II) were obtained from the Experimental Animal Center, the Chinese Academy of Medicine.
Medicine for control test: Cyclophosphamide was obtained from Shanghai Hualian Pharmaceutical Ltd, permit number 012034, 1995, Shanghai.
Mice grouping and administration: • a. U14 cell line group: physical saline, IP, 0.2 mL/d×10 d • b. Group treated with hexasaccharide 18: IP 10 mg/kg×10 d, 0.2 mL/d • c. Group treated with octyl hexaoside 18′: IP 10 mg/kg×10 d, 0.2 mL/d • d. Group treated with heptasaccharide 24: IP 10 mg/kg×10 d, 0.2 mL/d • e. Group treated with sulfated hexaose 25: IP 10 mg/kg×10 d, 0.2 mL/d • f. Group treated with cyclophosphamide: IP, 70 mg/kg×10 d, 0.1 mL/d (Cyclophosphamide was given to the mice by intraperitoneal at 24 h after the planting. After 48 h of the 1st injection, the 2nd injection was given, and after 48 h of the 2nd injection, the last injection was given). Test: U14 cells obtained from U14 mouse were diluted and counted. Each mouse was implanted with 0.2 ml (corresponding to 4×10^6 cells). A total of sixty mice were implanted. B. Test Results
1 h post administration of the last dose, the mice were weighed. The right-upper arm of the mice was cut after sterilization, and the tumor section was removed. The quotient of noumenal tumor (%) and inhibition (%) were calculated.

[3] = tested on: spleen B lymphocytes; assay: Immune enhancing activity: 3H-thymidine incorporation of spleen B lymphocytes from treated C57 mice, stimulated with Bal/bc lymphocytes; format: in vivo; conditions: 0.1 mL/d × 8d
Protocol: a. Medicine and reagents: synthetic lentinan hexaose 18, synthetic lentinan methyl α-heptaoside 24, synthetic lentinan octyl hexaoside 18′, lentinan (brand: Tian Di Xin) is produced by Nanjing Zhenzhong Biotech Ltd.
b. Animals: C57 mice were provided by Animal Center, Academia Sinica, weighing 20±2 g.
c. grouping and administration: the 50 mice were randomly allocated to 10 groups according to weight
The mice were injected IP with different doses of lentinan oligosaccharides listed above. […] Then the spleen B lymphocytes were extracted. The following experiment was then performed with the extracted lymphocytes: the 10^6 B cells were transferred to 96-well “U” shaped bottom plate, then the lymphocytes of Bal/bc mice were used as antigens to stimulate the B cells. After 4 days, ^3H-Thymidine was intermingled with the system and the B cells were collected 18 hours after. The isotopic incorporation was assessed by scintillation counting. Compared with positive control and minus control, the immuno-enhanced effect of these oligosaccharides was evaluated.

[4] = IP 10 mg/kg×10 d (dose of 17 not given)
[5] = IP 10 mg/kg, relative to control

With `C[C@]12C=CC(=O)C=C1CC[C@@H]1[C@@H]2[C@@H](O)C[C@@]2(C)[C@H]1CC[C@]2(O)C(=O)CO` [prednisolone, Prednisolone] the “leukocyte infiltrate in air pouch in comparison to the control” value [1] was 56±14%.

`COC1OC(CO)[C@@H](O)C(O[C@H]2OC(CO[C@@H]3OC(CO)[C@@H](O)C(O)C3O)[C@@H](O)C(O[C@@H]3OC(CO)[C@@H](O)C(O[C@H]4OC(CO[C@@H]5OC(CO)[C@@H](O)C(O)C5O)[C@@H](O)C(O[C@@H]5OC(CO)[C@@H](O)C(O)C5O)C4O)C3O)C2O)C1O` (stereo partly shown) [compound 24] was tested, and the “inhibition (%)” value [2, 4] was 41.21%, the “quotient of noumenal tumor (%)” value [2, 4] was 2.54 ± 1.89% and the 3H-TdR incorporation ([3]; IP 1 mg/kg, control 3394) was 5546. For the same compound, the “enhancement rate (%)” value ([3]; IP 1 mg/kg, control = 100) was 163%, the 3H-TdR incorporation ([3]; IP 10 mg/kg, control 3045) was 5087 and the “enhancement rate (%)” value [3, 5] was 167%.

In the case of `CCCCCCCCOC1OC(COC2OC(CO)C(O)C(O)C2O)C(O)C(OC2OC(CO)C(O)C(OC3OC(COC4OC(CO)C(O)C(O)C4O)[C@@H](O)C(OC4OC(CO)C(O)C(O)C4O)C3O)C2O)C1O` (stereo partly shown) [18′], the “inhibition (%)” value [2, 4] is reported as 58.43%, the “quotient of noumenal tumor (%)” value [2, 4] is reported as 1.54 ± 0.56 % and the 3H-TdR incorporation ([3]; IP 1 mg/kg, control 3394) is reported as 5547. The “enhancement rate (%)” value ([3]; IP 1 mg/kg, control = 100) was 163%, the 3H-TdR incorporation ([3]; IP 10 mg/kg, control 3045) was 6082 and the “enhancement rate (%)” value [3, 5] was 200%.

In the case of `OCC1OC(OCC2OC(O)C(O)C(OC3OC(CO)C(O)C(OC4OC(COC5OC(CO)C(O)C(O)C5O)[C@@H](O)C(OC5OC(CO)C(O)C(O)C5O)C4O)C3O)C2O)C(O)C(O)C1O` (stereo partly shown) [compound 18], the “inhibition (%)” value [2, 4] is reported as 29.41%, the “quotient of noumenal tumor (%)” value [2, 4] is reported as 2.63 ± 0.90% and the 3H-TdR incorporation ([3]; IP 1 mg/kg, control 3394) is reported as 5497. The “enhancement rate (%)” value ([3]; IP 1 mg/kg, control = 100) was 162%, the 3H-TdR incorporation ([3]; IP 10 mg/kg, control 3045) was 6084 and the “enhancement rate (%)” value [3, 5] was 200%.

In the case of `O=P1(N(CCCl)CCCl)NCCCO1` (stereo not shown) [cyclophosphamide, Cyclophosphamide, reference compound], the “inhibition (%)” value ([2]; cyclophosphamide IP 70 mg/kg) is reported as 43.89%, the “quotient of noumenal tumor (%)” value ([2]; cyclophosphamide IP 70 mg/kg) is reported as 1.86 ± 0.73 % and the “weight” value ([2]; mouse weight 1 h after last dose, cyclophosphamide IP 70 mg/kg) is reported as 28.00 ± 1.78 g.
